{"source": "paper PMC12514245", "about": "“Impaired migration and lung invasion of human melanoma by a novel small molecule targeting the transmembrane domain of death receptor p75^NTR” (EMBO Molecular Medicine, 2025)", "key": {"[1]": {"type": "in vivo", "details": "oral 200 mg/kg/day"}, "[2]": {"target": "TMD of TNF receptor 2 (TNFR2) (Homo sapiens, UniProt P20333)", "sequence (P20333 258-290 limits assumed)": "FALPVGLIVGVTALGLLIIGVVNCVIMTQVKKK", "assay": "2D NMR chemical shift perturbation, TNFR2 TMD in bicelles", "type": "binding", "details": "4 molar excess compound"}, "[3]": {"tested_on": "A875-NT melanoma xenograft", "assay": "Melanoma lung invasion assay, A875-NT, treatment from one day before cell injection", "type": "in vivo, SCID mice", "details": "for Photons/second/ mouse/week, Average: group average; for Photons/second/ mouse/week: single mouse", "method": "Next, to assess the potential inhibitory effects of Np75-4A22 on melanoma cell migration and tissue invasion in vivo, we utilized the highly metastatic human A875 xenograft model. […] Initially, to mimic metastatic dissemination from the primary tumor site, A875-NT or A875-shp75 cells expressing GFP-Luc (for live-monitoring of tumor growth) were injected intravenously in female SCID mice 24 h following a single oral administration of Np75-A422 (200 mg/kg) or drug vehicle alone. Mice received 3 cycles of Np75-A422 (200 mg/kg/day) following a 5 day on and 2 days off drug schedule for a total of 3 weeks (Fig. 8A). Metastatic spread to the lungs was monitored weekly by luciferase activity using the Xenogen IVIS-200 Optical in vivo luciferase imaging system and mice were sacrificed after the third week. […] In addition, assessment of the metastatic spread was also quantified by histological assessment of non-consecutive lung sections stained for human nucleolin to detect the tumor cells. […] In addition, and as expected, high expression of p75^NTR was detected in lung tumors established by A875-NT cells but was negligible in tumors derived from A875-shp75 cells (Fig. EV10).\nEight-week-old female SCID mice (Charles River Laboratories, Shrewsbury, MA, USA) were housed in groups of three to five and maintained on a 12-h light/dark schedule with a temperature of 22 °C ± 1 °C and a relative humidity of 50% ± 5%. Food and water were available ad libitum. This research study was reviewed and approved by the University of Calgary Animal Care Committee (AC22-0054) and McGill University (AUP-JGH-8269) and adheres to established ethical principles and guidelines. A875-GFPLuc (A875-NT) or A875-GFPLuc shp75 (A875-shp75) cells harvested using Puck’s EDTA were resuspended in PBS and injected intravenously into SCID mice (5 × 10^5 cells/200 μl per mouse). Np75-4A22 was dissolved in 0.5% sodium carboxymethyl cellulose (NaCMC) in reverse osmosis H2O and administered by oral gavage at 200 mg/kg/day starting one day prior to intravenous (tail vein) injection of tumor cells and continued for 3 1-week cycles (cycle: 5 days on drug, 2 days off drug). Tumor spread to the lung was monitored weekly by luciferase activity using the Xenogen IVIS-200 Optical in vivo luciferase imaging system as described previously (Lun et al, [2016]) and by immunohistochemistry (IHC) at designated time points. IHC was performed after formalin fixation, paraffin embedding and sectioning of the lungs, using a human-specific mouse polyclonal nucleolin antibody (1:500 dilution) and detected using Dako liquid DAB+ Substrate Chromogen System (Dako: k3468, California, USA) followed by a hematoxylin counterstain (Sigma, Oakville, ON, Canada). Sections were mounted and imaged on an Olympus phase contrast microscope (Olympus Life Science, Tokyo, Japan). For immunofluorescence, sections were stained with anti-human nucleolin and anti-human p75NTR antibodies (1:1000 dilution), subsequently detected with 1:200 dilutions of Alexa Fluor™ 488 Goat anti-Mouse IgG (H + L) Highly Cross-Adsorbed Secondary Antibody and Alexa Fluor™ 568 Goat anti-Rabbit IgG (H + L) Cross-Adsorbed Secondary Antibody. Sections were further stained with DAPI to detect all nuclei. Between each treatment, TBS Automation Wash Buffer (Biocare Medical TWB945M) was employed. Images were taken with LSM800 confocal microscope and ZEN system."}}, "note": "Where “and” joins values, the source holds several entries; their conditions need not be identical. Equal entries are not always repeated. Entries after “also recorded” stand apart in the source; their conditions may differ.", "data": [{"smiles": "Cc1cccc(-c2cncc(Nc3ccc(Br)c(Cl)c3Cl)n2)c1C", "note": "[Np75-4A22]", "values": [{"measurement": "mortality, repeated dose", "setting": "[1]; 21 consecutive days, females and males", "value": "No mortality"}, {"measurement": "treatment-related effects, repeated dose, females", "setting": "[1]; 21 days, females", "value": "mild decrease in lymphocyte cellularity and increase granulopoiesis"}, {"measurement": "treatment-related effects, repeated dose, males", "setting": "[1]; 21 days, males", "value": "no treatment-related effects"}, {"measurement": "chemical shift perturbations, TNFR2 TMD", "setting": "[2]", "value": "essentially no interaction; also recorded: no or minimal chemical shift perturbations"}, {"measurement": "Photons/second/ mouse/week, Average", "setting": "[3]; A875-NT, 1wk", "value": "9.39E+04", "unit": "Photons/second"}, {"measurement": "Photons/second/ mouse/week", "setting": "[3]; A875-NT, 1wk", "value": "8.62E+04 Photons/second and 1.03E+05 Photons/second and 1.11E+05 Photons/second and 1.02E+05 Photons/second and 1.26E+05 Photons/second and 1.23E+05 Photons/second and 7.03E+04 Photons/second and 6.52E+04 Photons/second and 7.29E+04 Photons/second and 7.98E+04 Photons/second"}, {"measurement": "Photons/second/ mouse/week, Average", "setting": "[3]; A875-NT, 2wks", "value": "1.01E+05", "unit": "Photons/second"}, {"measurement": "Photons/second/ mouse/week", "setting": "[3]; A875-NT, 2wks", "value": "9.63E+04 Photons/second and 1.02E+05 Photons/second and 1.27E+05 Photons/second and 8.86E+04 Photons/second and 1.04E+05 Photons/second and 1.23E+05 Photons/second and 9.01E+04 Photons/second and 9.59E+04 Photons/second and 8.45E+04 Photons/second and 9.64E+04 Photons/second"}, {"measurement": "Photons/second/ mouse/week", "setting": "[3]; A875-NT, 3wks", "value": "1.77E+05 Photons/second and 1.53E+05 Photons/second and 2.03E+05 Photons/second and 2.34E+05 Photons/second and 2.96E+05 Photons/second and 2.73E+05 Photons/second and 1.26E+05 Photons/second and 2.18E+05 Photons/second and 2.30E+05 Photons/second and 1.32E+05 Photons/second"}, {"measurement": "Metastatic Nodules/Lung Section, Average", "setting": "[3]; A875-NT, average of 5 non-consecutive slides per individual mouse", "value": "0.6 and 0.2 and 0.4 and 1 and 0"}, {"measurement": "Cancer Cells/Lung Section, Average per mouse", "setting": "[3]; A875-NT, average of 5 slides of one mouse", "value": "5.4 and 2 and 18.4 and 8 and 21.4 and 2.2 and 0"}, {"measurement": "Cancer Cells/Lung Section, group Average", "setting": "[3]; A875-NT, average of all mice", "value": 6.16}, {"measurement": "Metastatic Nodules/Lung Section, group Average", "setting": "[3]; A875-NT, average over all mice of the group", "value": 0.36}, {"measurement": "Metastatic Nodules/Lung Section, Slide 1", "setting": "[3]; A875-NT, individual mouse, slide 1 of 5 non-consecutive slides/mouse", "value": "0 and 1"}, {"measurement": "Metastatic Nodules/Lung Section, Slide 2", "setting": "[3]; A875-NT, individual mouse, slide 2 of 5 non-consecutive slides/mouse", "value": "1 and 0"}, {"measurement": "Metastatic Nodules/Lung Section, Slide 3", "setting": "[3]; A875-NT, individual mouse, slide 3 of 5 non-consecutive slides/mouse", "value": "0 and 1"}, {"measurement": "Metastatic Nodules/Lung Section, Slide 4", "setting": "[3]; A875-NT, individual mouse, slide 4 of 5 non-consecutive slides/mouse", "value": "0 and 1 and 2"}, {"measurement": "Metastatic Nodules/Lung Section, Slide 5", "setting": "[3]; A875-NT, individual mouse, slide 5 of 5 non-consecutive slides/mouse", "value": "2 and 1 and 0"}, {"measurement": "lung tumors (luciferase imaging)", "setting": "[3]; oral 200 mg/kg/day, 3 cycles 5 days on/2 days off", "value": "dramatic reduction of lung tumors"}, {"measurement": "lung tumors by histology (human nucleolin; cancer cells and lesions)", "setting": "[3]; oral 200 mg/kg/day, 3 weeks", "value": "marked reduction"}]}]}
